Measurements taken from patent US6737383B1, “Herbicidal oxadiazolidines” (priority 1999, dated 2004).

Columns and labels:
blackgrass = experiment: Test B pre/postemergence blackgrass; format: in vivo, Alopecurus myosuroides
Outline: (§1)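 Test chemicals in a non-phytotoxic solvent mixture with surfactant were sprayed preemergence onto planted seeds and postemergence onto plants 2 to 18 cm tall (1- to 4-leaf stage). After twelve to sixteen days in a greenhouse, injury was visually rated against untreated controls from 0 (no effect) to 10 (complete control).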

giant foxtail = experiment: Test B pre/postemergence giant foxtail; format: in vivo, Setaria faberii
Outline: as §1

purple nutsedge = experiment: Test B pre/postemergence purple nutsedge; format: in vivo, Cyperus rotundus
Outline: as §1

wheat = experiment: Test B pre/postemergence wheat; format: in vivo, Triticum aestivum
Outline: as §1

[1] = Postemergence, Rate 62 g/ha, scale 0 to 10, 0 is no effect, 10 is complete control
[2] = Postemergence, Rate 125 g/ha, scale of 0 to 10 where 0 is no effect and 10 is complete control
[3] = Postemergence, Rate 250 g/ha, scale of 0 to 10, 0 is no effect, 10 is complete control
[4] = Postemergence, Rate 500 g/ha, scale of 0 to 10 where 0 is no effect and 10 is complete control
[5] = Preemergence, Rate 62 g/ha, scale 0 to 10 (0 no effect, 10 complete control)
[6] = Preemergence, Rate 125 g/ha, scale of 0 to 10 where 0 is no effect and 10 is complete control
[7] = Preemergence, Rate 500 g/ha, scale of 0 to 10 where 0 is no effect and 10 is complete control
[8] = Preemergence, Rate 62 g/ha, scale of 0 to 10 where 0 is no effect and 10 is complete control
[9] = Preemergence, Rate 125 g/ha, 0 is no effect, 10 is complete control
[10] = Preemergence, Rate 250 g/ha, scale 0 to 10, 0 is no effect, 10 is complete control
[11] = Rate 62 g/ha, Postemergence, scale of 0 to 10 where 0 is no effect and 10 is complete control
[12] = Rate 125 g/ha, Postemergence, scale 0 to 10
[13] = Rate 500 g/ha, Postemergence, scale 0 to 10
[14] = Preemergence, Rate 250 g/ha, scale of 0 to 10 where 0 is no effect and 10 is complete control
[15] = Rate 125 g/ha, Preemergence, scale of 0 to 10 where 0 is no effect and 10 is complete control
[16] = Rate 125 g/ha, Postemergence, scale of 0 to 10 where 0 is no effect and 10 is complete control
[17] = Rate 250 g/ha, Postemergence, scale of 0 to 10 where 0 is no effect and 10 is complete control
[18] = Rate 500 g/ha, Postemergence, scale 0 to 10, 0 no effect, 10 complete control
[19] = Postemergence, Rate 125 g/ha, scale 0 to 10, 0 is no effect, 10 is complete control

CCC(C)n1c(=O)on(C(=O)N(c2ccccc2)C(C)C)c1=O (stereo not shown) [Compound 612]
Plant response rating, Blackgrass (blackgrass; [1]): 7 | Plant response rating, Blackgrass (blackgrass; [2]): 9 | Blackgrass plant response rating (blackgrass; [3]): 9 | Plant response rating, Blackgrass (blackgrass; [4]): 10 | Blackgrass plant response rating (blackgrass; [5]): 8 | Blackgrass plant response rating (blackgrass; [6]): 10 | Blackgrass plant response rating (0 to 10 scale) (blackgrass; Preemergence, Rate 250 g/ha): 10 | Blackgrass plant response rating (blackgrass; [7]): 10 | Plant response rating, Giant foxtail (giant foxtail; [1]): 7 | Plant response rating, Giant foxtail (giant foxtail; [2]): 9 | Giant foxtail plant response rating (giant foxtail; [3]): 9 | Plant response rating, Giant foxtail (giant foxtail; [4]): 9 | Giant foxtail plant response rating (giant foxtail; [5]): 10 | Giant foxtail plant response rating (giant foxtail; [6]): 10 | Plant response rating, Giant foxtail (giant foxtail; [7]): 10 | Plant response rating, Nutsedge (purple nutsedge; [1]): 0 | Plant response rating, Nutsedge (purple nutsedge; [2]): 0 | Nutsedge plant response rating (purple nutsedge; [3]): 0 | Plant response rating, Nutsedge (purple nutsedge; [4]): 2 | Nutsedge plant response rating (purple nutsedge; [5]): 0 | Nutsedge plant response rating (purple nutsedge; [6]): 0 | Plant response rating, Nutsedge (purple nutsedge; [7]): 3 | Plant response rating, Wheat (wheat; [1]): 0 | Plant response rating, Wheat (wheat; [2]): 2 | Wheat plant response rating (wheat; [3]): 2 | Plant response rating, Wheat (wheat; [4]): 5 | Wheat plant response rating (wheat; [5]): 0 | Wheat plant response rating (wheat; [6]): 3 | Plant response rating, Wheat (wheat; [7]): 8

CC(C)N(C(=O)n1oc(=O)n(Cc2ccco2)c1=O)c1ccc(Cl)cc1 [Compound 206]
Blackgrass plant response rating (blackgrass; [8]): 0 | Blackgrass plant response rating (0 to 10 scale) (blackgrass; [9]): 0 | Blackgrass plant response rating (blackgrass; [10]): 0 | Plant response rating, Blackgrass (blackgrass; [7]): 0 | Blackgrass plant response rating (blackgrass; [11]): 0 | Blackgrass plant response rating (blackgrass; [12]): 0 | Plant response rating (0 to 10; 0 is no effect, 10 is complete control), Blackgrass (blackgrass; Rate 250 g/ha, Postemergence): 0 | Blackgrass plant response rating (blackgrass; [13]): 0 | Giant foxtail plant response rating (giant foxtail; [8]): 0 | Giant foxtail plant response rating (0 to 10 scale) (giant foxtail; [9]): 3 | Giant foxtail plant response rating (giant foxtail; [10]): 8 | Plant response rating, Giant foxtail (giant foxtail; [7]): 9 | Giant foxtail plant response rating (giant foxtail; [11]): 0 | Giant foxtail plant response rating (giant foxtail; [12]): 0 | Plant response rating (0 to 10; 0 is no effect, 10 is complete control), Giant foxtail (giant foxtail; Rate 250 g/ha, Postemergence): 0 | Giant foxtail plant response rating (giant foxtail; [13]): 0 | Nutsedge plant response rating (purple nutsedge; [8]): 0 | Nutsedge plant response rating (0 to 10 scale) (purple nutsedge; [9]): 0 | Nutsedge plant response rating (purple nutsedge; [10]): 0 | Plant response rating, Nutsedge (purple nutsedge; [7]): 0 | Nutsedge plant response rating (purple nutsedge; [11]): 0 | Nutsedge plant response rating (purple nutsedge; [12]): 0 | Plant response rating (0 to 10; 0 is no effect, 10 is complete control), Nutsedge (purple nutsedge; Rate 250 g/ha, Postemergence): 0 | Nutsedge plant response rating (purple nutsedge; [13]): 0 | Wheat plant response rating (wheat; [8]): 0 | Wheat plant response rating (wheat; [10]): 0 | Plant response rating, Wheat (wheat; [7]): 0 | Wheat plant response rating (wheat; [11]): 0 | Wheat plant response rating (wheat; [12]): 0 | Plant response rating (0 to 10; 0 is no effect, 10 is complete control), Wheat (wheat; Rate 250 g/ha, Postemergence): 0

CCOC(=O)C=CCn1c(=O)on(C(=O)N(c2ccc(F)cc2)C(C)C)c1=O [Compound 214]
Blackgrass plant response rating (blackgrass; [8]): 0 | Blackgrass plant response rating (blackgrass; [14]): 3 | Plant response rating, Blackgrass (blackgrass; [7]): 3 | Blackgrass plant response rating (blackgrass; [11]): 1 | Blackgrass plant response rating (blackgrass; [12]): 4 | Plant response rating (0 to 10; 0 is no effect, 10 is complete control), Blackgrass (blackgrass; Rate 250 g/ha, Postemergence): 4 | Blackgrass plant response rating (blackgrass; [13]): 5 | Giant foxtail plant response rating (giant foxtail; [8]): 2 | Giant foxtail plant response rating (giant foxtail; [14]): 6 | Plant response rating, Giant foxtail (giant foxtail; [7]): 6 | Giant foxtail plant response rating (giant foxtail; [11]): 0 | Giant foxtail plant response rating (giant foxtail; [12]): 0 | Giant foxtail plant response rating (giant foxtail; [15]): 3 | Plant response rating (0 to 10; 0 is no effect, 10 is complete control), Giant foxtail (giant foxtail; Rate 250 g/ha, Postemergence): 0 | Giant foxtail plant response rating (giant foxtail; [13]): 4 | Nutsedge plant response rating (purple nutsedge; [8]): 0 | Nutsedge plant response rating (purple nutsedge; [11]): 0 | Nutsedge plant response rating (purple nutsedge; [12]): 0 | Plant response rating (0 to 10; 0 is no effect, 10 is complete control), Nutsedge (purple nutsedge; Rate 250 g/ha, Postemergence): 0 | Nutsedge plant response rating (purple nutsedge; [13]): 0 | Wheat plant response rating (wheat; [8]): 0 | Wheat plant response rating (wheat; [14]): 0 | Plant response rating, Wheat (wheat; [7]): 0 | Wheat plant response rating (wheat; [11]): 0 | Wheat plant response rating (wheat; [12]): 0 | Wheat plant response rating (wheat; [15]): 0 | Plant response rating (0 to 10; 0 is no effect, 10 is complete control), Wheat (wheat; Rate 250 g/ha, Postemergence): 3

CC(C)N(C(=O)n1oc(=O)n(-c2ccsc2)c1=O)c1ccc(F)cc1 [Compound 272]
Blackgrass plant response rating (blackgrass; [8]): 0 | Blackgrass plant response rating (blackgrass; [14]): 0 | Plant response rating, Blackgrass (blackgrass; [7]): 0 | Blackgrass plant response rating (blackgrass; [11]): 0 | Blackgrass plant response rating (blackgrass; [16]): 0 | Blackgrass plant response rating (blackgrass; [15]): 0 | Plant response rating, Blackgrass (blackgrass; [17]): 2 | Blackgrass plant response rating (blackgrass; [18]): 6 | Giant foxtail plant response rating (giant foxtail; [8]): 2 | Giant foxtail plant response rating (giant foxtail; [14]): 6 | Plant response rating, Giant foxtail (giant foxtail; [7]): 6 | Giant foxtail plant response rating (giant foxtail; [16]): 0 | Giant foxtail plant response rating (giant foxtail; [15]): 5 | Plant response rating, Giant foxtail (giant foxtail; [17]): 0 | Giant foxtail plant response rating (giant foxtail; [18]): 0 | Nutsedge plant response rating (purple nutsedge; [8]): 0 | Nutsedge plant response rating (purple nutsedge; [14]): 0 | Plant response rating, Nutsedge (purple nutsedge; [7]): 0 | Nutsedge plant response rating (purple nutsedge; [16]): 0 | Nutsedge plant response rating (purple nutsedge; [15]): 0 | Plant response rating, Nutsedge (purple nutsedge; [17]): 0 | Nutsedge plant response rating (purple nutsedge; [18]): 0 | Wheat plant response rating (wheat; [8]): 0 | Wheat plant response rating (wheat; [14]): 0 | Plant response rating, Wheat (wheat; [7]): 0 | Wheat plant response rating (wheat; [16]): 0 | Wheat plant response rating (wheat; [15]): 0 | Plant response rating, Wheat (wheat; [17]): 0 | Wheat plant response rating (wheat; [18]): 0

CC(C)N(C(=O)n1oc(=O)n(CC(=O)C(C)(C)C)c1=O)c1ccc(F)cc1 [Compound 216]
Blackgrass plant response rating (blackgrass; [8]): 0 | Blackgrass plant response rating (blackgrass; [14]): 4 | Plant response rating, Blackgrass (blackgrass; [7]): 4 | Blackgrass plant response rating (blackgrass; [11]): 0 | Blackgrass plant response rating (blackgrass; [12]): 4 | Blackgrass plant response rating (blackgrass; [15]): 2 | Plant response rating (0 to 10; 0 is no effect, 10 is complete control), Blackgrass (blackgrass; Rate 250 g/ha, Postemergence): 8 | Blackgrass plant response rating (blackgrass; [13]): 8 | Giant foxtail plant response rating (giant foxtail; [8]): 0 | Giant foxtail plant response rating (giant foxtail; [14]): 7 | Plant response rating, Giant foxtail (giant foxtail; [7]): 9 | Giant foxtail plant response rating (giant foxtail; [11]): 0 | Giant foxtail plant response rating (giant foxtail; [12]): 2 | Giant foxtail plant response rating (giant foxtail; [15]): 6 | Plant response rating (0 to 10; 0 is no effect, 10 is complete control), Giant foxtail (giant foxtail; Rate 250 g/ha, Postemergence): 4 | Giant foxtail plant response rating (giant foxtail; [13]): 6 | Nutsedge plant response rating (purple nutsedge; [8]): 0 | Nutsedge plant response rating (purple nutsedge; [14]): 0 | Plant response rating, Nutsedge (purple nutsedge; [7]): 0 | Nutsedge plant response rating (purple nutsedge; [11]): 0 | Nutsedge plant response rating (purple nutsedge; [12]): 0 | Nutsedge plant response rating (purple nutsedge; [15]): 0 | Plant response rating (0 to 10; 0 is no effect, 10 is complete control), Nutsedge (purple nutsedge; Rate 250 g/ha, Postemergence): 0 | Nutsedge plant response rating (purple nutsedge; [13]): 0 | Wheat plant response rating (wheat; [8]): 0 | Wheat plant response rating (wheat; [14]): 0 | Plant response rating, Wheat (wheat; [7]): 0 | Wheat plant response rating (wheat; [11]): 0 | Wheat plant response rating (wheat; [12]): 0 | Wheat plant response rating (wheat; [15]): 0 | Plant response rating (0 to 10; 0 is no effect, 10 is complete control), Wheat (wheat; Rate 250 g/ha, Postemergence): 0

CC(C)N(C(=O)n1oc(=O)n(C2CCCCCC2)c1=O)c1ccc(F)cc1F [Compound 342]
Plant response rating, Blackgrass (blackgrass; [19]): 0 | Plant response rating, Blackgrass (blackgrass; [5]): 0 | Blackgrass plant response rating (0 to 10 scale) (blackgrass; Preemergence, Rate 125 g/ha): 3 | Blackgrass plant response rating (blackgrass; [14]): 3 | Blackgrass plant response rating (blackgrass; [7]): 7 | Blackgrass plant response rating (blackgrass; [11]): 0 | Plant response rating, Blackgrass (blackgrass; [17]): 2 | Plant response rating, Blackgrass (blackgrass; [18]): 4 | Plant response rating, Giant foxtail (giant foxtail; [19]): 0 | Plant response rating, Giant foxtail (giant foxtail; [5]): 8 | Giant foxtail plant response rating (0 to 10 scale) (giant foxtail; Preemergence, Rate 125 g/ha): 9 | Giant foxtail plant response rating (giant foxtail; [14]): 10 | Giant foxtail plant response rating (giant foxtail; [7]): 10 | Giant foxtail plant response rating (giant foxtail; [11]): 0 | Plant response rating, Giant foxtail (giant foxtail; [18]): 7 | Plant response rating, Nutsedge (purple nutsedge; [19]): 0 | Plant response rating, Nutsedge (purple nutsedge; [5]): 0 | Nutsedge plant response rating (0 to 10 scale) (purple nutsedge; Preemergence, Rate 125 g/ha): 0 | Nutsedge plant response rating (purple nutsedge; [14]): 0 | Nutsedge plant response rating (purple nutsedge; [7]): 0 | Nutsedge plant response rating (purple nutsedge; [11]): 0 | Plant response rating, Nutsedge (purple nutsedge; [18]): 0 | Plant response rating, Wheat (wheat; [19]): 0 | Plant response rating, Wheat (wheat; [5]): 0 | Wheat plant response rating (0 to 10 scale) (wheat; Preemergence, Rate 125 g/ha): 0 | Wheat plant response rating (wheat; [14]): 0 | Wheat plant response rating (wheat; [7]): 3 | Wheat plant response rating (wheat; [11]): 0 | Plant response rating, Wheat (wheat; [18]): 0
